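The compound was tested at five concentrations on cells cultured in 96-well plates, with a 48-hour exposure period. TGI: concentration producing complete growth inhibition.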
How the values were obtained:
Experiment in all cases: NCI anticancer screen, dose series, 48 h
[1] = test system: 786-0 renal
[2] = test system: A498 renal
[3] = test system: A549 NSCLC
[4] = test system: ACHN renal
[5] = test system: BT-549 breast
[6] = test system: CAKI-1 renal
[7] = test system: CCRF-CEM leukemia
[8] = test system: COLO 205 colon
[9] = test system: DU-145 prostate
[10] = test system: EKVX NSCLC
[11] = test system: HCC-2998 colon
[12] = test system: HCT-116 colon
[13] = test system: HCT-15 colon
[14] = test system: HOP-62 NSCLC
[15] = test system: HOP-92 NSCLC
[16] = test system: HS 578T breast
[17] = test system: HT29 colon
[18] = test system: IGROV1 ovarian
[19] = test system: K-562 leukemia
[20] = test system: KM12 colon
[21] = test system: LOX IMVI melanoma
[22] = test system: M14 melanoma
[23] = test system: MALME-3M melanoma
[24] = test system: MDA-MB-231 breast
[25] = test system: MDA-MB-435
[26] = test system: MDA-N
[27] = test system: MOLT-4 leukemia
[28] = test system: NCI-H226 lung
[29] = test system: NCI-H23 lung
[30] = test system: NCI-H460 lung
[31] = test system: NCI-H522 lung
[32] = test system: NCI/ADR-RES ovarian
[33] = test system: OVCAR-3 ovarian
[34] = test system: OVCAR-4 ovarian
[35] = test system: OVCAR-5 ovarian
[36] = test system: OVCAR-8 ovarian
[37] = test system: PC-3 prostate
[38] = test system: RPMI-8226 leukemia
[39] = test system: RXF 393 renal
[40] = test system: SF-268 CNS
[41] = test system: SF-295 CNS
[42] = test system: SF-539 CNS
[43] = test system: SK-MEL-2 melanoma
[44] = test system: SK-MEL-28 melanoma
[45] = test system: SK-MEL-5 melanoma
[46] = test system: SK-OV-3 ovarian
[47] = test system: SN12C renal
[48] = test system: SNB-19 CNS
[49] = test system: SNB-75 CNS
[50] = test system: SW-620 colon
[51] = test system: T-47D breast
[52] = test system: TK-10 renal
[53] = test system: U251 CNS
[54] = test system: UACC-257 melanoma
[55] = test system: UACC-62 melanoma
[56] = test system: UO-31 renal
[57] = test system: HL-60(TB) leukemia
[58] = test system: MCF7 breast
[59] = test system: SR leukemia

Measured: TGI

C#C[C@@H](OC(=O)c1ccc([N+](=O)[O-])cc1)[C@@H]1C[C@H]2O[C@@H]([C@H](C/C=C/CC)OC(=O)c3ccc([N+](=O)[O-])cc3)C[C@H]2O1
not listed: [57] | [58] | [59]
> 100 µM: all other assays above

O=S(=O)(N1CCCCN(S(=O)(=O)C(F)(F)F)CCCN(S(=O)(=O)C(F)(F)F)CCCCN(S(=O)(=O)C(F)(F)F)CCCN(S(=O)(=O)C(F)(F)F)CCCCN(S(=O)(=O)C(F)(F)F)CCCN(S(=O)(=O)C(F)(F)F)CCCCN(S(=O)(=O)C(F)(F)F)CCC1)C(F)(F)F
> 100 µM: [1] | [8] | [34] | [35] | [38] | [43] | [53]
not listed: [58] | [59]
> 31.6 µM: all other assays above

O=C1/C(=C\c2cccc(Oc3ccccc3)c2)SC(c2ccccc2)N1Cc1ccccc1 (centres undefined)
75.7 µM: [27]
57.4 µM: [38]
90.9 µM: [28]
98.3 µM: [51]
57.7 µM: [23]
71.9 µM: [46]
34 µM: [12]
99.5 µM: [52]
22 µM: [8]
76.2 µM: [25]
32 µM: [21]
28 µM: [45]
46.1 µM: [31]
37.3 µM: [42]
70 µM: [33]
66.7 µM: [22]
45.5 µM: [7]
45.7 µM: [43]
51.2 µM: [17]
78.3 µM: [57]
74.4 µM: [32]
62.7 µM: [29]
92.8 µM: [48]
64.4 µM: [53]
64 µM: [39]
56.8 µM: [59]
68.9 µM: [36]
89 µM: [5]
60 µM: [15]
52.3 µM: [26]
82.5 µM: [16]
87.9 µM: [54]
83.8 µM: [20]
not listed: [18] | [37] | [49]
> 100 µM: all other assays above

Source: PubChem BioAssay (NCI)
